US10646488B2 (Araxes Pharma LLC, priority 2016, dated 2020)

biological target: T1, KRAS G12C 1-169, his-tagged protein, GDP-loaded (Homo sapiens, UniProt P01116, G12C); test: Covalent binding (% modification) to KRAS G12C by mass spectrometry; settings: covalent binding to KRAS G12C after a ten minute incubation period; note: test concentration or dose not given here
T1 construct: KRAS G12C 1-169, his-tagged protein, GDP-loaded

Molecule	Binding %
C=CC(=O)N1[C@H](C)CN(c2nc(N3CC(N(C)C)C3)nc3c(F)c(-c4c(O)cccc4F)c(Cl)cc23)C[C@@H]1C [Compound 26, 1-((2R,6S)-4-(6-chloro-2-(3-(dimethylamino)azetidin-1-yl)-8-fluoro-7-(2-fluoro-6-hydroxyphenyl)quinazolin-4-yl)-2,6-dimethyl-piperazin-1-yl) prop-2-en-1-one]	++ (++ indicates binding activity from 50 to 90%)
C=CC(=O)N1C[C@H](C)N(c2nc(N3CC(N(C)C)C3)nc3c(F)c(-c4c(C)ccc5[nH]ncc45)c(Cl)cc23)C[C@H]1C [Compound 54, 1-((2R,5S)-4-(6-chloro-2-(3-(dimethylamino)azetidin-1-yl)-8-fluoro-7-(5-methyl-1H-indazol-4-yl)quinazolin-4-yl)-2,5-dimethyl-piperazin-1-yl) prop-2-en-1-one]	+++ (+++ indicates binding activity greater than 90%)
C=CC(=O)N1CCN(c2nc(N)nc3c(F)c(-c4cc(O)cc5ccccc45)c(Cl)cc23)[C@@H](C)C1 [Compound 12, 1-((3 S)-4-(2-Amino-6-Chloro-8-Fluoro-7-(3-Hydroxynaphthalen-1-Yl)Quinazolin-4-Yl)-3-Methylpiperazin-1-Yl)Prop-2-En-1-One]	+++ (+++ indicates binding activity greater than 90%)
C=CC(=O)N1C[C@H](C)N(c2nc(N3CC(N(C)C)C3)nc3c(F)c(-c4c(O)cccc4F)c(Cl)cc23)C[C@H]1C (atropisomer, axis not shown) [Compound 52, 1-((2R,5S)-4-((S)-6-chloro-2-(3-(dimethylamino)azetidin-1-yl)-8-fluoro-7-(2-fluoro-6-hydroxyphenyl)quinazolin-4-yl)-2,5-dimethyl-piperazin-1-yl) prop-2-en-1-one]	+++ (+++ indicates binding activity greater than 90%)
C=CC(=O)N1[C@H](C)CN(c2nc(OCCN3CC(F)(F)C3)nc3c(F)c(-c4c(C)ccc5cn[nH]c45)c(Cl)cc23)C[C@@H]1C [Compound 30, 1-((2R,6S)-4-(6-chloro-2-(2-(3,3-difluoroazetidin-1-yl)ethoxy)-8-fluoro-7-(6-methyl-1H-indazol-7-yl)quinazolin-4-yl)-2,6-dimethyl-piperazin-1-yl) prop-2-en-1-one]	++ (++ indicates binding activity from 50 to 90%)
C=CC(=O)N1[C@H](C)CN(c2nc(NC3CCN(C4CC4)CC3)nc3c(F)c(-c4c(O)cccc4F)c(Cl)cc23)C[C@@H]1C [Compound 20, 1-((2R,6S)-4-(6-chloro-2-((1-cyclopropyl-piperidin-4-yl)amino)-8-fluoro-7-(2-fluoro-6-hydroxyphenyl)quinazolin-4-yl)-2,6-dimethyl-piperazin-1-yl) prop-2-en-1-one]	++ (++ indicates binding activity from 50 to 90%)
C=CC(=O)N1CCN(c2nc(N3CC(N(C)C)C3)nc3c(F)c(-c4c(C)ccc5cn[nH]c45)c(Cl)cc23)C[C@H]1C (atropisomer, axis not shown) [Compound 71, 1-((R)-4-((S)-6-chloro-2-(3-(dimethylamino)azetidin-1-yl)-8-fluoro-7-(6-methyl-1H-indazol-7-yl)quinazolin-4-yl)-2-methyl-piperazin-1-yl) prop-2-en-1-one]	+ (+ indicates binding activity up to 50%)
C=CC(=O)N1CCN(c2nc(N3CC(N(C)C)C3)nc3c(F)c(-c4c(C)ccc5cn[nH]c45)c(Cl)cc23)C[C@H]1C [Compound 69, 1-((2R)-4-(6-chloro-2-(3-(dimethylamino)azetidin-1-yl)-8-fluoro-7-(6-methyl-1H-indazol-7-yl)quinazolin-4-yl)-2-methyl-piperazin-1-yl) prop-2-en-1-one]	+++ (+++ indicates binding activity greater than 90%)

same assay, conditions: covalent binding to KRAS G12C after a three minute incubation period

Molecule	Binding %
[2H]C([2H])([2H])N(C1CN(c2nc(N3C[C@@H](C)N(C(=O)C=C)C[C@@H]3C)c3cc(Cl)c(-c4c(O)cccc4F)c(F)c3n2)C1)C([2H])([2H])[2H] (atropisomer, axis not shown) [Compound 212, 1-((2R,5S)-4-(2-(3-(bis(triduetero-methyl)amino)azetidin-1-yl)-6-chloro-8-fluoro-7-((R)-2-fluoro-6-hydroxyphenyl)quinazolin-4-yl)-2,5-dimethyl-piperazin-1-yl) prop-2-en-1-one]	+ (+ indicates binding activity greater than 0% and up to 50%)
C=CC(=O)N1C[C@H](C)N(c2nc(N3CC(N(C)C(C)C)C3)nc3c(F)c(-c4c(C)ccc5cn[nH]c45)c(Cl)cc23)C[C@H]1C [Compound 122, 1-((2R,5S)-4-(6-chloro-8-fluoro-2-(3-(isopropyl (methyl)amino)azetidin-1-yl)-7-(6-methyl-1H-indazol-7-yl)quinazolin-4-yl)-2,5-dimethyl-piperazin-1-yl) prop-2-en-1-one]	++ (++ indicates binding activity from 50 to 90%)
C=CC(=O)N1C[C@H](C)N(c2nc(OCCCN(C)C)nc3c(F)c(-c4cc(O)cc5ccccc45)c(C(F)(F)F)cc23)C[C@H]1C [Compound 210, 1-((2R,5S)-4-(2-(3-(dimethylamino)propoxy)-8-fluoro-7-(3-hydroxy-naphthalen-1-yl)-6-(trifluoromethyl)quinazolin-4-yl)-2,5-dimethyl-piperazin-1-yl) prop-2-en-1-one]	+++ (+++ indicates binding activity greater than 90%)
C=CC(=O)N1C[C@H](C)N(c2nc(OCCN(CC)CC)nc3c(F)c(-c4c(C)ccc5cn[nH]c45)c(Cl)cc23)C[C@H]1C (atropisomer, axis not shown) [Compound 156, 1-((2R,5S)-4-(6-chloro-2-(2-(diethylamino)ethoxy)-8-fluoro-7-((R)-6-methyl-1H-indazol-7-yl)quinazolin-4-yl)-2,5-dimethyl-piperazin-1-yl) prop-2-en-1-one]	+++ (+++ indicates binding activity greater than 90%)
C=CC(=O)N1C[C@H](C)N(c2nc(N3CC4(CCCN(C5CC5)C4)C3)nc3c(F)c(-c4c(O)cccc4F)c(Cl)cc23)C[C@H]1C [Compound 195, 1-((2R,5S)-4-(6-chloro-2-(6-cyclopropyl-2,6-diazaspiro[3.5]nonan-2-yl)-8-fluoro-7-(2-fluoro-6-hydroxyphenyl)quinazolin-4-yl)-2,5-dimethyl-piperazin-1-yl) prop-2-en-1-one]	+ (+ indicates binding activity greater than 0% and up to 50%)
C=CC(=O)N1C[C@H](C)N(c2nc(COCc3ncccc3F)nc3c(F)c(-c4c(O)cccc4F)c(Cl)cc23)C[C@H]1C [Compound 141, 1-((2R,5S)-4-(6-chloro-8-fluoro-7-(2-fluoro-6-hydroxyphenyl)-2-(((3-fluoro-pyridin-2-yl)methoxy)methyl)quinazolin-4-yl)-2,5-dimethyl-piperazin-1-yl) prop-2-en-1-one]	++ (++ indicates binding activity from 50 to 90%)
C=CC(=O)N1C[C@H](C)N(c2nc(N3CC(N(C)C)C3)nc3c(F)c(-c4c(F)cccc4OC(C)=O)c(Cl)cc23)C[C@H]1C [Compound 214, 2-(4-((2S,5R)-4-acryloyl-2,5-dimethylpiperazin-1-yl)-6-chloro-2-(3-(dimethylamino)azetidin-1-yl)-8-fluoroquinazolin-7-yl)-3-fluoro-phenyl acetate]	+ (+ indicates binding activity greater than 0% and up to 50%)
C=CC(=O)N1C[C@H](C)N(c2nc(Oc3cn[nH]c3)nc3c(F)c(-c4c(C)ccc5[nH]ncc45)c(Cl)cc23)C[C@H]1C [Compound 223, 1-((2R,5S)-4-(2-(1H-pyrazol-4-yloxy)-6-chloro-8-fluoro-7-(5-methyl-1H-indazol-4-yl)quinazolin-4-yl)-2,5-dimethyl-piperazin-1-yl) prop-2-en-1-one]	++ (++ indicates binding activity from 50 to 90%)
C=CC(=O)N1C[C@H](C)N(c2nc(N3CC(N(CC)CC)C3)nc3c(F)c(-c4c(C)ccc5[nH]ncc45)c(Cl)cc23)C[C@H]1C (atropisomer, axis not shown) [Compound 152, 1-((2R,5S)-4-(6-chloro-2-(3-(diethylamino)azetidin-1-yl)-8-fluoro-7-((S)-5-methyl-1H-indazol-4-yl)quinazolin-4-yl)-2,5-dimethyl-piperazin-1-yl) prop-2-en-1-one]	+ (+ indicates binding activity greater than 0% and up to 50%)
1-((2R,5S)-4-(6- chloro-2-(2- (diethylamino) ethoxy)-8-fluoro- 7-((S)-6-methyl- 1H-indazol-7-yl) quinazolin-4-yl)- 2,5-dimethyl- piperazin-1-yl) prop-2-en-1-one [Compound 157]	+ (+ indicates binding activity greater than 0% and up to 50%)
C=CC(=O)N1C[C@H](C)N(c2nc(N3CC(NC)C3)nc3c(F)c(-c4c(C)ccc5[nH]ncc45)c(Cl)cc23)C[C@H]1C [Compound 188, 1-((2R,5S)-4-(6-chloro-8-fluoro-7-(5-methyl-1H-indazol-4-yl)-2-(3-(methylamino)azetidin-1-yl)quinazolin-4-yl)-2,5-dimethyl-piperazin-1-yl) prop-2-en-1-one]	+ (+ indicates binding activity greater than 0% and up to 50%)
C=CC(=O)N1C[C@H](C)N(c2nc(N3CC(N(C)C)C3)nc3c(F)c(-c4c(F)cccc4B4OC(C)(C)C(C)(C)O4)c(Cl)cc23)C[C@H]1C [Compound 185, 1-((2R,5S)-4-(6-chloro-2-(3-(dimethylamino)azetidin-1-yl)-8-fluoro-7-(2-fluoro-6-(4,4,5,5-tetramethyl-1,3,2-dioxaborolan-2-yl)phenyl)quinazolin-4-yl)-2,5-dimethyl-piperazin-1-yl) prop-2-en-1-one]	+ (+ indicates binding activity greater than 0% and up to 50%)
C=CC(=O)N1C[C@H](C)N(c2nc(N3CC(N(C)C4CC4)C3)nc3c(F)c(-c4c(C)ccc5[nH]ncc45)c(Cl)cc23)C[C@H]1C [Compound 134, 1-((2R,5S)-4-(6-chloro-2-(3-(cyclopropyl (methyl)amino)azetidin-1-yl)-8-fluoro-7-(5-methyl-1H-indazol-4-yl)quinazolin-4-yl)-2,5-dimethyl-piperazin-1-yl) prop-2-en-1-one]	++ (++ indicates binding activity from 50 to 90%)
